This is an account of results in patent publication US20100317528A1, “HERBICIDE CONTAINING BENZOYLPYRAZOLE COMPOUND” (ISHIHARA SANGYO KAISHA, LTD., priority 2006, published 2010).

SMILES strings stand for the structures.

Type in all cases: in vivo
Test [1] relates to barnyardgrass (Echinochloa crus-galli L.). The test is described as follows: Test Example 1: foliar treatment, upland pot test, barnyardgrass. To be noted: 31 g/ha active ingredient, observed 17th to 25th day after application; for inhibition at 31 g/ha: Echinochloa crus-galli, read-out: Growth inhibition rate (%) Barnyardgrass.
Test [2] concerns crabgrass (Digitaria sanguinalis L.). The test is described as follows: Test Example 1: foliar treatment, upland pot test, crabgrass. The note with it: 31 g/ha active ingredient, observed 17th to 25th day after application; for inhibition at 31 g/ha: Digitaria sanguinalis, read-out: Growth inhibition rate (%) Crabgrass.
The test system of test [3] is green foxtail (Setaria viridis L.). The test is described as follows: Test Example 1: foliar treatment, upland pot test, green foxtail. The note with it: 31 g/ha active ingredient, observed 17th to 25th day after application; for inhibition at 31 g/ha: Setaria viridis, read-out: Growth inhibition rate (%) Green foxtail.
Test [4] deals with redroot pigweed (Amaranthus retroflexus L.). Briefly: Test Example 1: foliar treatment, upland pot test, redroot pigweed. The note with it: 31 g/ha active ingredient, observed 17th to 25th day after application; for inhibition at 31 g/ha: Amaranthus retroflexus, read-out: Growth inhibition rate (%) Redroot pigweed. In outline:
(§1)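 Upland soil pots, sown; foliar spray at pigweed cotyledon–2.0 leaf, velvetleaf 0.1–1.5 leaf, rice 1.0–3.0 leaf, wheat 1.7–3.4 leaf. WP/EC formulations, prescribed a.i. rate, 500 L/ha spray volume + 0.1 vol % spreader. Visual % inhibition, d17–25.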

Test [5] has as its system prickly sida (Sida spinosa L.). Briefly: Test Example 1: foliar treatment, upland pot test, prickly sida. To be noted: 31 g/ha active ingredient, observed 17th to 25th day after application; for inhibition at 31 g/ha: Sida spinosa, read-out: Growth inhibition rate (%) Prickly sida.
In test [6] the test system is velvetleaf (Abutilon theophrasti MEDIC.). The test is described as follows: Test Example 1: foliar treatment, upland pot test, velvetleaf. The note with it: 31 g/ha active ingredient, observed 17th to 25th day after application; for inhibition at 31 g/ha: Abutilon theophrasti, read-out: Growth inhibition rate (%) Velvetleaf. In a few lines: as §1
Test [7] relates to rice (Oryza sativa L.). The test is described as follows: Test Example 1: foliar treatment, upland pot test, rice. The note with it: 31 g/ha active ingredient, observed 17th to 25th day after application; for inhibition at 31 g/ha: Oryza sativa, read-out: Growth inhibition rate (%) Rice. In outline: as §1
The test system of test [8] is wheat (Triticum spp.). Briefly: Test Example 1: foliar treatment, upland pot test, wheat. The note with it: 31 g/ha active ingredient, observed 17th to 25th day after application; for inhibition at 31 g/ha: Triticum, read-out: Growth inhibition rate (%) Wheat. In outline:
as §1

For test [9], the system named is corn (Zea mays L.). Briefly: Test Example 1: foliar treatment, upland pot test, corn. The note with it: 31 g/ha active ingredient, observed 17th to 25th day after application; for inhibition at 31 g/ha: Zea mays, read-out: Growth inhibition rate (%) Corn.
Test [10] has as its system soybean (Glycine max Merr.). The test is described as follows: Test Example 1: foliar treatment, upland pot test, soybean. To be noted: 31 g/ha active ingredient, observed 17th to 25th day after application; for inhibition at 31 g/ha: Glycine max, read-out: Growth inhibition rate (%) Soybean.
Test [11] deals with barnyardgrass (Echinochloa crus-galli L.). The test is described as follows: Test Example 2: soil application on the day after sowing, barnyardgrass. To be noted: 250 g/ha active ingredient, observed 19th to 28th day after application; for inhibition at 250 g/ha: Echinochloa crus-galli, read-out: Growth inhibition rate (%) Barnyardgrass. In outline:
(§2)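 Herbicidal activity is scored on a 0–100% visual scale of growth inhibition 19–28 d after treatment. The active ingredient, weighed to prescribed doses, is applied as a diluted formulation (500 L water/ha) to soil one day post-sowing.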

The test system of test [12] is crabgrass (Digitaria sanquinalis L.). The test is described as follows: Test Example 2: soil application on the day after sowing, crabgrass. The note with it: 250 g/ha active ingredient, observed 19th to 28th day after application; for inhibition at 250 g/ha: Digitaria, read-out: Growth inhibition rate (%) Crabgrass. In a few lines:
as §2

For test [13], the system named is green foxtail (Setaria viridis L.). The test is described as follows: Test Example 2: soil application on the day after sowing, green foxtail. The note with it: 250 g/ha active ingredient, observed 19th to 28th day after application; for inhibition at 250 g/ha: Setaria viridis, read-out: Growth inhibition rate (%) Green foxtail. In outline:
as §2

Test [14] deals with redroot pigweed (Amaranthus retroflexus L.). The test is described as follows: Test Example 2: soil application on the day after sowing, redroot pigweed. To be noted: 250 g/ha active ingredient, observed 19th to 28th day after application; for inhibition at 250 g/ha: Amaranthus retroflexus, read-out: Growth inhibition rate (%) Redroot pigweed. In a few lines: as §2
Test [15] concerns prickly sida (Sida spinosa L.). The test is described as follows: Test Example 2: soil application on the day after sowing, prickly sida. The note with it: 250 g/ha active ingredient, observed 19th to 28th day after application; for inhibition at 250 g/ha: Sida spinosa, read-out: Growth inhibition rate (%) Prickly sida. In outline: as §2
Test [16] deals with velvetleaf (Abutilon theophrasti MEDIC.). Briefly: Test Example 2: soil application on the day after sowing, velvetleaf. The note with it: 250 g/ha active ingredient, observed 19th to 28th day after application; for inhibition at 250 g/ha: Abutilon theophrasti, read-out: Growth inhibition rate (%) Velvetleaf. In outline:
as §2

In test [17] the test system is rice (Oryza sativa L.). The test is described as follows: Test Example 2: soil application on the day after sowing, rice. The note with it: 250 g/ha active ingredient, observed 19th to 28th day after application; for inhibition at 250 g/ha: Oryza sativa, read-out: Growth inhibition rate (%) Rice. In a few lines:
as §2

The test system of test [18] is wheat (Triticum spp.). Briefly: Test Example 2: soil application on the day after sowing, wheat. To be noted: 250 g/ha active ingredient, observed 19th to 28th day after application; for inhibition at 250 g/ha: Triticum, read-out: Growth inhibition rate (%) Wheat. An excerpt:
Upland field soil was put into a 1/170,000 hectare pot, and seeds of various plants barnyardgrass (Echinochloa crus-galli L.), crabgrass (Digitaria sanquinalis L.), green foxtail (Setaria viridis L.), redroot pigweed (Amaranthus retroflexus L.), prickly sida (Sida spinosa L.), velvetleaf (Abutilon theophrasti MEDIC.), rice (Oryza sativa L.), wheat (Triticum spp.), corn (Zea mays L.) and soybean (Glycine max Merr.)) were sown. On the day after sowing, wettable powders or emulsifiable concentrates of the compounds of the above formula (I) prepared in accordance with a conventional preparation method, were weighed so that the active ingredients became the prescribed amounts, and diluted with water in an amount corresponding to 500 liter per 1 hectare, followed by soil application with a small sprayer.
On the 19th to 28th day after the application, the state of growth of the respective plants was visually observed, and the herbicidal effect was evaluated by a growth inhibition rate (%) of from 0 (equivalent to the non-treated area) to 100% (complete kill).

Test [19] deals with corn (Zea mays L.). Briefly: Test Example 2: soil application on the day after sowing, corn. To be noted: 250 g/ha active ingredient, observed 19th to 28th day after application; for inhibition at 250 g/ha: Zea mays, read-out: Growth inhibition rate (%) Corn. In outline:
as §2

Test [20] relates to soybean (Glycine max Merr.). The test is described as follows: Test Example 2: soil application on the day after sowing, soybean. The note with it: 250 g/ha active ingredient, observed 19th to 28th day after application; for inhibition at 250 g/ha: Glycine max, read-out: Growth inhibition rate (%) Soybean. In outline:
as §2

Take `CCCOC(=O)c1c(S(C)(=O)=O)ccc(C(=O)c2cnn(CC)c2O)c1Cl` [compound 154]: the figures for the “Growth inhibition rate (%) Barnyardgrass” value in test [1] and in test [11] were 40% and 100%, respectively. Moreover, the entries for the “Growth inhibition rate (%) Crabgrass” value in test [2] and in [12] were 70% and 95%, respectively. In addition, the “Growth inhibition rate (%) Green foxtail” value in test [3] is recorded as 60%; in test [13] it was 30%. The results for the “Growth inhibition rate (%) Redroot pigweed” value in test [4] and in [14] were 70% and 100%, respectively. Moreover, the “Growth inhibition rate (%) Prickly sida” value is given as 40% in [5] and 60% in test [15]. Besides, the “Growth inhibition rate (%) Velvetleaf” value is on record as 60% in [6] and 40% in test [16]. Also, the “Growth inhibition rate (%) Rice” value in the test on rice (Oryza sativa L.) [7] and in the test with rice (Oryza sativa L.) [17] was 50% in each case. For the same compound, the “Growth inhibition rate (%) Wheat” value with wheat (Triticum spp.) [8] and in the test with wheat (Triticum spp.) [18] was 0% throughout. Further, the “Growth inhibition rate (%) Corn” value in the test with corn (Zea mays L.) [9] and in the test on corn (Zea mays L.) [19] was 0% throughout. The “Growth inhibition rate (%) Soybean” value in test [10] came out at 30%; in test [20] it was 0%.

Turning to `Cn1ncc(C(=O)c2ccc(S(C)(=O)=O)c(Cl)c2Cl)c1O` [compound 238], the inhibition at 31 g/ha in test [1] came out at 0%; in test [2] it was 0%; in test [3], 0%; in [4], 50%; in test [5] it was 0%; in test [6], 30%. Also, the inhibition at 31 g/ha was found to be 0% in the test with rice (Oryza sativa L.) [7], 0% in the test on wheat (Triticum spp.) [8], 0% in the test on corn (Zea mays L.) [9] and 50% in test [10]. For the same compound, the inhibition at 250 g/ha is 0% in [11]; 20% in [12]; 20% in test [13]; 30% in test [14]; 0% in test [15]; 0% in [16]. For the same compound, the inhibition at 250 g/ha (in the test on rice (Oryza sativa L.) [17]; in the test with wheat (Triticum spp.) [18]; in the test with corn (Zea mays L.) [19]; in test [20]) was 0% in each case.

As for `COCCOc1c(S(C)(=O)=O)ccc(C(=O)c2c(C)nn(C)c2O)c1C` [compound 259], the figures for the “Growth inhibition rate (%) Barnyardgrass” value in [1] and in test [11] were 95% and 10%, respectively. Also, the “Growth inhibition rate (%) Crabgrass” value in test [2] is 95%; in test [12], 100%. Also, the “Growth inhibition rate (%) Green foxtail” value in test [3] turned out to be 100%; in test [13], 60%. The “Growth inhibition rate (%) Redroot pigweed” value was 95% in test [4] and 90% in [14]. Also, the “Growth inhibition rate (%) Prickly sida” value in [5] was found to be 60%; in [15], 0%. In addition, the “Growth inhibition rate (%) Velvetleaf” value in [6] amounted to 98%; in [16], 70%. The “Growth inhibition rate (%) Rice” value worked out at 70% with rice (Oryza sativa L.) [7] and 10% in the test with rice (Oryza sativa L.) [17]. For the same compound, the “Growth inhibition rate (%) Wheat” value in the test with wheat (Triticum spp.) [8] and in the test on wheat (Triticum spp.) [18] was 0% each time. Moreover, the “Growth inhibition rate (%) Corn” value in the test on corn (Zea mays L.) [9] and with corn (Zea mays L.) [19] was 0% throughout. Further, the “Growth inhibition rate (%) Soybean” value in test [10] was determined as 95%; in test [20] it was 20%.

`CCOC(=O)c1c(S(C)(=O)=O)ccc(C(=O)c2cnn(CC)c2O)c1Cl` [compound 153]: the inhibition at 31 g/ha in test [1] turned out to be 90%; in test [2], 80%; in test [3], 60%; in test [4], 90%; in test [5], 70%; in [6] it was 70%. Moreover, the inhibition at 31 g/ha was found to be 40% in the test on rice (Oryza sativa L.) [7], 0% in the test on wheat (Triticum spp.) [8], 0% with corn (Zea mays L.) [9] and 70% in test [10]. Further, the inhibition at 250 g/ha came to 100% in [11]; 100% in [12]; 100% in test [13]; 100% in test [14]; 80% in test [15]; 100% in test [16]. Also, the inhibition at 250 g/ha worked out at 70% in the test with rice (Oryza sativa L.) [17], 10% in the test with wheat (Triticum spp.) [18], 10% with corn (Zea mays L.) [19] and 0% in test [20].
